Results on 2 compounds are retold here after US5486511A, “4-amino-17β-(cyclopropyloxy)androst-4-en-3-one, 4-amino-17β-(cyclopropylamino)androst-4-en-3-one and related compounds as C17-20 lyase and 5α-reductase” (Merrell Dow Pharmaceuticals Inc., priority 1994, dated 1996).

The target in assay [1] is T1, cynomolgus monkey C17,20 lyase (Macaca fascicularis, UniProt Q2XVA1).
T1 construct: microsomes were isolated from human, cynomolgus monkey, dog, rat or athymic nude mouse testicular tissue; from tissue; host or cells: cynomolgus monkey testis microsomes
T1 sequence (Q2XVA1 1-508): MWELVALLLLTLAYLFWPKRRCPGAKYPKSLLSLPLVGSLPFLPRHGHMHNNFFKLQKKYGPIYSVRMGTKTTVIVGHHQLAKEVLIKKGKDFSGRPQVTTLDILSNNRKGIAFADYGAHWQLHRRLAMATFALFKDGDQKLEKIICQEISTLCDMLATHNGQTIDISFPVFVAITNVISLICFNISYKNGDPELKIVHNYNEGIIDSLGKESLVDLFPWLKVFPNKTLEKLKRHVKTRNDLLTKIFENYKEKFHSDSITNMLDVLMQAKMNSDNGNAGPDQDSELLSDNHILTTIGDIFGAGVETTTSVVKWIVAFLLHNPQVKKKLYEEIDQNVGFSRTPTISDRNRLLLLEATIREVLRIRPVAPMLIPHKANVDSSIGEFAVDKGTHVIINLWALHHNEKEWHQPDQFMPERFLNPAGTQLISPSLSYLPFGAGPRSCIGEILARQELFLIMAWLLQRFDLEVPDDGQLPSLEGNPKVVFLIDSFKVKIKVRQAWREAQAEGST
Briefly: Inhibition of cynomolgus monkey steroid C17,20 lyase (testicular microsomes), time dependent, Kitz-Wilson. The class given is biochemical. As to the method:
The activity of the present compounds as inhibitors of steroid C17,20 lyase was established using microsomal preparations of the steroid C17,20 lyase enzyme from human or laboratory animal testes. Human testes used for this purpose were obtained from therapeutic orchiectomies. Specifically, microsomes were isolated from human, cynomolgus monkey, dog, rat or athymic nude mouse testicular tissue. The compound to be tested was dissolved in dimethyl sulfoxide and diluted in 0.05M potassium phosphate buffer to give the desired concentrations of the test compound. The potassium phosphate buffer was at pH 7.4 for the human, monkey and dog lyase assays and at pH 7.2 for the rat and athymic nude mouse lyase assays. Assays also contained 1 mM NADPH, 5 mM glucose-6-phosphate, 1 IU/ml glucose-6-phosphate dehydrogenase (an NADPH regenerating system) and microsomal protein in a total volume of 0.2 mL. Control assays contained all components including dimethyl sulfoxide, but with no test compound. All assays were performed in duplicate. For determination of time dependent C17,20 lyase inactivation, the test compound was incubated with 20 to 60 μg/ml microsomal protein, buffer, and the NADPH regenerating system described above at 34° C. for 0 or 40 minutes. Aliquots (180 μl) were then removed and assayed for enzyme activity by addition to tritiated steroid substrate plus unlabeled steroid substrate to give a 200 μl total assay volume, and were subsequently incubated at 34° C. for 6 minutes. For determination of reversible inhibition by the test compound, the reaction was initiated by addition of substrate. The radiolabeled substrate used for human, cynomolgus monkey and dog lyase was [7-^3 H]-17α-hydroxypregnenolone, 11.2 Ci/mmole, 0.2 μCi total activity per assay. Unlabeled 17α-hydroxypregnenolone was added to give a total concentration of 1.0 μM or 0.3 μM for the human and monkey enzymes, and 0.08 μM for the canine enzyme. […] The radiolabeled substrate used for the rodent enzymes were [1,2-^3 H]-17α-hydroxyprogesterone (40-57 Ci/mmol; 0.2 μCi per assay). Unlabeled 17α-hydroxyprogesterone was added to give a total concentration of 0.1 μM for the rat enzyme (Km =0.1 μM) and 0.03 μM (Km =0.03 μM) for the athymic nude mouse enzyme. The total assay volume was 200 μl. The complete assay was incubated at 34° C. for 6 minutes. Each reaction was stopped by the addition of 5 ml of chloroform:methanol (2:1). […] Radioactivity in the steroid peaks was measured by a Radiomatic Model HS Flo-One detector.
(§1) The enzyme activity for each incubate was calculated from the percent conversion of substrate to products, and the results were expressed as percent inhibition of control. […] The Ki and kinact for time dependent inhibitors were determined by graphical analysis of Kitz-Wilson plots. […]

The next assay concerns the target T2, human lyase (Homo sapiens, UniProt P05093).
T2 construct: microsomes were isolated from human, cynomolgus monkey, dog, rat or athymic nude mouse testicular tissue; from tissue; host or cells: human testis microsomes (therapeutic orchiectomies)
T2 sequence (P05093 1-508): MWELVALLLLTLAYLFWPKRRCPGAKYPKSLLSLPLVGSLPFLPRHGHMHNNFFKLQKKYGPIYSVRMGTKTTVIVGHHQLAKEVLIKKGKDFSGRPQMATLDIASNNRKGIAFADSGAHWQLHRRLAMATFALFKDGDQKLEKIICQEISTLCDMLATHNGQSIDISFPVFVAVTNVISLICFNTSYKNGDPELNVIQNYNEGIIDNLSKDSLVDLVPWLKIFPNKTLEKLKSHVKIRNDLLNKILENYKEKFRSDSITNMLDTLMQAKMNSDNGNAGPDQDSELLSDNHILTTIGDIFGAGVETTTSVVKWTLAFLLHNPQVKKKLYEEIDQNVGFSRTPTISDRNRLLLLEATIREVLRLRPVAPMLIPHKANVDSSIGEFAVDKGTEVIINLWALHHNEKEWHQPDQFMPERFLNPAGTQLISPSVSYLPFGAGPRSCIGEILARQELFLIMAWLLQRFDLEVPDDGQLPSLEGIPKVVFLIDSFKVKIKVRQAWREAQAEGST
Briefly: Inhibition of human steroid C17,20 lyase (testicular microsomes). The class given is biochemical. Here is the method:
The activity of the present compounds as inhibitors of steroid C17,20 lyase was established using microsomal preparations of the steroid C17,20 lyase enzyme from human or laboratory animal testes. Human testes used for this purpose were obtained from therapeutic orchiectomies. Specifically, microsomes were isolated from human, cynomolgus monkey, dog, rat or athymic nude mouse testicular tissue. The compound to be tested was dissolved in dimethyl sulfoxide and diluted in 0.05M potassium phosphate buffer to give the desired concentrations of the test compound. The potassium phosphate buffer was at pH 7.4 for the human, monkey and dog lyase assays and at pH 7.2 for the rat and athymic nude mouse lyase assays. Assays also contained 1 mM NADPH, 5 mM glucose-6-phosphate, 1 IU/ml glucose-6-phosphate dehydrogenase (an NADPH regenerating system) and microsomal protein in a total volume of 0.2 mL. Control assays contained all components including dimethyl sulfoxide, but with no test compound. All assays were performed in duplicate. For determination of time dependent C17,20 lyase inactivation, the test compound was incubated with 20 to 60 μg/ml microsomal protein, buffer, and the NADPH regenerating system described above at 34° C. for 0 or 40 minutes. Aliquots (180 μl) were then removed and assayed for enzyme activity by addition to tritiated steroid substrate plus unlabeled steroid substrate to give a 200 μl total assay volume, and were subsequently incubated at 34° C. for 6 minutes. For determination of reversible inhibition by the test compound, the reaction was initiated by addition of substrate. The radiolabeled substrate used for human, cynomolgus monkey and dog lyase was [7-^3 H]-17α-hydroxypregnenolone, 11.2 Ci/mmole, 0.2 μCi total activity per assay. Unlabeled 17α-hydroxypregnenolone was added to give a total concentration of 1.0 μM or 0.3 μM for the human and monkey enzymes, and 0.08 μM for the canine enzyme. […] The radiolabeled substrate used for the rodent enzymes were [1,2-^3 H]-17α-hydroxyprogesterone (40-57 Ci/mmol; 0.2 μCi per assay). Unlabeled 17α-hydroxyprogesterone was added to give a total concentration of 0.1 μM for the rat enzyme (Km =0.1 μM) and 0.03 μM (Km =0.03 μM) for the athymic nude mouse enzyme. The total assay volume was 200 μl. The complete assay was incubated at 34° C. for 6 minutes. Each reaction was stopped by the addition of 5 ml of chloroform:methanol (2:1). Carrier steroids representing substrate and products and 0.8 ml of water were also added at this time. The carrier steroids for the human, monkey and dog lyase assays were 17α-hydroxypregnenolone, dehydroepiandrosterone and androstenediol. Carrier steroids for the rodent lyase assays were 17α-hydroxyprogesterone, androstenedione, and testosterone. The steroids were extracted by the method of Moore and Wilson (Methods in Enzymol., eds. O'Malley, B. W. and Hardman, J. G. 36, 1975, p. 466-474), the organic phase containing the steroids was evaporated using nitrogen gas, the residues dissolved in 18% tetrahydrofuran (v/v) in hexane, and the steroids were separated by HPLC on a Si60 (5 um) column (250×4 mm) using a gradient of 18-22% tetrahydrofuran (v/v) in hexane. Radioactivity in the steroid peaks was measured by a Radiomatic Model HS Flo-One detector.
The enzyme activity for each incubate was calculated from the percent conversion of substrate to products, and the results were expressed as percent inhibition of control. […] The Ki and kinact for time dependent inhibitors were determined by graphical analysis of Kitz-Wilson plots. When the compounds of the present invention were tested in the above procedure using human lyase, the following results were observed: […]

A further assay relates to canine lyase. Briefly: Inhibition of canine steroid C17,20 lyase (testicular microsomes). The conditions noted are these: canine; 1 μM; preincubation 40 min. The assay is classed as biochemical, dog. Here is the method:
(§2) The activity of the present compounds as inhibitors of steroid C17,20 lyase was established using microsomal preparations of the steroid C17,20 lyase enzyme from human or laboratory animal testes. Human testes used for this purpose were obtained from therapeutic orchiectomies. Specifically, microsomes were isolated from human, cynomolgus monkey, dog, rat or athymic nude mouse testicular tissue. The compound to be tested was dissolved in dimethyl sulfoxide and diluted in 0.05M potassium phosphate buffer to give the desired concentrations of the test compound. The potassium phosphate buffer was at pH 7.4 for the human, monkey and dog lyase assays and at pH 7.2 for the rat and athymic nude mouse lyase assays. Assays also contained 1 mM NADPH, 5 mM glucose-6-phosphate, 1 IU/ml glucose-6-phosphate dehydrogenase (an NADPH regenerating system) and microsomal protein in a total volume of 0.2 mL. Control assays contained all components including dimethyl sulfoxide, but with no test compound. All assays were performed in duplicate. […] Radioactivity in the steroid peaks was measured by a Radiomatic Model HS Flo-One detector.
as §1

The test system of a further assay is nude mouse lyase. Nature of the assay: Inhibition of athymic nude mouse steroid C17,20 lyase (testicular microsomes). The assay is classed as biochemical. The conditions noted are these: nude mouse; 0.01 μM; preincubation 40 min. As to the method: as §2, §1
In another assay the test system is rat lyase. Briefly: Inhibition of rat steroid C17,20 lyase (testicular microsomes). The assay is classed as biochemical. The conditions noted are these: rat; 0.1 μM; preincubation 40 min. Here is the method:
as §2, §1

On to `C[C@]12CC[C@H]3[C@@H](C=CC4=C(N)C(=O)CC[C@@]43C)[C@@H]1CC[C@@H]2OC1CC1` [Compound 1, 4-Amino-17β-(cyclopropyloxy)androsta-4,6-dien-3-one], for which, in assay [1], the Ki is 339 nM and the kinact (commonly the maximal first-order rate at which the target is inactivated) was 0.0009 s⁻¹. Also, at human lyase (preincubation 0 min), 1 µM produced 69% inhibition and at 10 µM the inhibition was 95%. On human lyase (preincubation 40 min), the inhibition (in general, the change of the read-out against control, counted positive when it falls) at 1 µM is 84% and the inhibition at 10 µM was 98%.
With `C[C@]12CC[C@H]3[C@@H](CCC4=C(N)C(=O)CC[C@@]43C)[C@@H]1CC[C@@H]2OC1CC1` [Compound 2, 4-Amino-17β-(cyclopropyloxy)androst-4-en-3-one], the % Inhibition (usually the relative decrease from the control value, in per cent) is on record as 57% in the assay on canine lyase, 84% in the assay on nude mouse lyase and 70% in the assay with rat lyase. In assay [1], this compound came in with a Ki of 286 nM. Besides, the kinact in assay [1] is 0.0007 s⁻¹. For the same compound, the figures for the inhibition at 1 µM against human lyase (preincubation 0 min) and at human lyase (preincubation 40 min) were 79% and 86%, respectively. Besides, the results for the inhibition at 10 µM against human lyase (preincubation 0 min) and against human lyase (preincubation 40 min) were 96% and 99%, respectively.
